Here are results for 5 compounds from patent publication US20140099662A1, “PHOTOTOXICITY TEST METHOD” (SUMITOMO CHEMICAL COMPANY, LIMITED, priority 2011, published 2014).

≈ marks a conversion by molar mass, not a printed value. Where two headings read alike, the source gives them in different places.

The subject of data set [1] is human retinal pigment epithelial cells. Description: in vitro. The method, then:
(§1) The human retinal pigment epithelial cells prepared in Example 2 were treated with 0.25% trypsin to collect the cells from a culture dish. The collected cells were seeded in a 96-well culture dish previously coated with Matrigel at 100000 or 120000 cells per well and then cultured in an incubator at 37° C. and 5% CO2.
(§2) After the cultivation for 2 hours to 4 hours, the medium was removed from the 96-well culture dish using an aspirator and Earle's Balanced Salt Solution (EBSS) was then added to the 96-well culture dish at 150 μl per well to wash the cells.
(§3) After the 96-well culture dish was shaded by wrapping with aluminum foil, irradiation of the culture dish shaded with aluminum foil with light was carried out using a light irradiation device (a solar simulator SXL-2500V2: SERIC LTD.) for 40 minutes (light irradiation dose of about 5 J/cm^2). Immediately after light irradiation, the 96-well culture dish was washed twice with 150 μl of a DMEM/F12 culture liquid and a DMEM/F12 culture liquid supplemented with N2-supplement was then added to the 96-well culture dish at 100 μl per well, followed by cultivation overnight.
(§4) After the cultivation, the medium was removed from the 96-well culture dish and a previously prepared mixed solution of equal amounts of DMEM/F12 culture liquid and Cell titer Glo reaction liquid was then added to the 96-well culture dish at 100 μl per well.
(§5) The obtained 96-well culture dish was allowed to stand at room temperature for 30 minutes while shaking in a shaded state with aluminum foil and 95 μl of culture contained in the 96-well culture dish was then transferred to a white 96-well examining dish. Next, the amount of luminescence of the culture contained in the 96-well examining dish (the amount of luminescence has a correlation with the cell survival rate) was measured by EnVision Multilabel Reader (PerkinElmer). The 50% inhibitory concentration (IC50) of a test substance to the human retinal pigment epithelial cells was calculated from the measured values and the calculated value was considered as a value showing cytotoxicity (an index value correlated therewith).
(§6) Unlike Example 3, irradiation with light was carried out using a light irradiation device (a solar simulator SXL-2500V2: SERIC LTD.) for 40 minutes without wrapping the 96-well culture dish with aluminum foil (light irradiation dose is about 5 J/cm^2 by calculation based on light irradiation strength at 360 nm). Immediately after light irradiation, the 96-well culture dish was washed twice with 150 μl of a DMEM/F12 culture liquid and a DMEM/F12 culture liquid supplemented with N2-supplement was then added to the 96-well culture dish at 100 μl per well, followed by cultivation overnight.
(§7) The above-described PIF value (Photo Irritation Facor value) was obtained based on the 50% inhibitory concentration (IC50) calculated in Example 3 and Example 4 (that is, a value obtained by dividing the cytotoxicity IC50 value in human retinal pigment epithelial cells exposed to a test substance (a (shaded) control for non-light Irradiation) by the cytotoxicity IC50 value in human retinal pigment epithelial cells cultured under simulated solar light irradiation within 24 hours after the onset of exposure to the test substance). […] When the value (PIF value) was greater than 5, the test substance was evaluated as phototoxicity-positive.

Data set [2] in a line: in vitro. Conditions: human, IC50 (50% inhibitory concentration, cytotoxicity). As to the method:
as §1, §2, §3, §4, §5, §6, §7

Data set [3] relates to yeast-RBC. Conditions: 4 facilities, validation study report Aug. 27, 2004; cited from earlier work.
In data set [4] the test system is Balb/c 3T3 cells. The data set can be described thus: in vitro. As to the method: (§8) “Balb/c 3T3 cells” are connective tissue cells and fibroblasts.
(§9) The “Balb/c 3T3 cells” cultured in DMEM medium supplemented with 10% bovine serum and L-glutamine were treated with 0.25% trypsin to collect the cells from a culture dish. The collected cells were seeded in a 96-well culture dish previously coated with a 0.1% gelatin solution at 10000 cells per well and then cultured in DMEM medium supplemented with 10% bovine serum and […] in an incubator at 37° C. and 5% CO2 overnight.
(§10) After the cultivation, the medium was removed from the 96-well culture dish using an aspirator and Earle's Balanced Salt Solution (EBSS) was then added to the 96-well culture dish at 150 μl per well to wash the cells.
(§11) After the 96-well culture dish was shaded by wrapping with aluminum foil, irradiation of the culture dish shaded with aluminum foil with light was carried out using a light irradiation device (a solar simulator SXL-2500V2: SERIC LTD.) for 40 minutes (the light irradiation dose is about 5 J/cm^2 by calculation based on irradiation strength at 360 nm). Immediately after light irradiation, the 96-well culture dish was washed twice with 150 μl of a DMEM/F12 culture liquid and a DMEM/F12 culture liquid supplemented with N2-supplement was then added to the 96-well culture dish at 100 μl per well, followed by cultivation overnight.
as §4
(§12) The obtained 96-well culture dish was allowed to stand at room temperature for 30 minutes while shaking in a shaded state with aluminum foil and 95 μl of culture contained in the 96-well culture dish was then transferred to a white 96-well examining dish.
(§13) Next, the amount of luminescence of the culture contained in the 96-well examining dish (the amount of luminescence has a correlation with the cell survival rate) was measured by EnVision Multilabel Reader (PerkinElmer). The 50% inhibitory concentration (IC50) of a test substance to the human retinal pigment epithelial cells was calculated from the measured values and the calculated value was considered as a value showing cytotoxicity (an index value correlated therewith).
(§14) The “Balb/c 3T3 cells” cultured in DMEM medium supplemented with 10% bovine serum and L-glutamine were treated with 0.25% trypsin to collect the cells from a culture dish. The collected cells were seeded in a 96-well culture dish previously coated with a 0.1% gelatin solution at 10000 cells per well and then cultured in DMEM medium supplemented with 10% bovine serum and L-glutamine in an incubator at 37° C. and 5% CO2 overnight.
(§15) Unlike Comparative Example 1, light irradiation was carried out using a light irradiation device (a solar simulator SXL-2500V2: SERIC LTD.) for 40 minutes without wrapping the 96-well culture dish with aluminum foil (light irradiation dose is about 5 J/cm^2 by calculation based on light irradiation strength at 360 nm). Immediately after light irradiation, the 96-well culture dish was washed twice with 150 μl of a DMEM/F12 culture liquid and a DMEM/F12 culture liquid supplemented with N2-supplement was then added to the 96-well culture dish at 100 μl per well, followed by cultivation overnight.
(§16) The obtained 96-well culture dish was allowed to stand at room temperature for 30 minutes while shaking in a shaded state with aluminum foil and 95 μl of culture contained in the 96-well culture dish was then transferred to a white 96-well examining dish. Next, the amount of luminescence of the culture contained in the 96-well examining dish (the amount of luminescence has a correlation with the cell survival rate) was measured by EnVision Multilabel Reader (PerkinElmer).

Data set [5] is described as follows: in vitro. Conditions: mouse, IC50 (50% inhibitory concentration, cytotoxicity). The method, then: as §8, §9, §10, §11, §4, §12, §13, §14, §15, §16
The test system of data set [6] is human retinal pigment epithelial cells. The method, then: The relationship between the light irradiation dose and the above-described PIF value (that is, a value obtained by dividing the cytotoxicity IC50 value in human retinal pigment epithelial cells exposed to a test substance (a (shaded) control for non-light irradiation) by the cytotoxicity IC50 value in human retinal pigment epithelial cells cultured under simulated solar light irradiation within 24 hours after the onset of contact with the test substance) was examined using chlorpromazine (CPZ) used as a positive control in the OECD guideline. Light irradiation was set to each condition of a light of 2.09 mW/cm^2 (measured with UVR300 manufactured by TOPCON CORPORATION equipped with photoreceiving part UD360) for 15 minutes (1.87 J/cm^2), 20 minutes (2.50 J/cm^2), 25 minutes (3.13 J/cm^2), 30 minutes (3.75 J/cm^2), 40 minutes (5.00 J/cm^2) and 60 minutes (7.51 J/cm^2), and the phototoxicity test method was carried out according to the methods described in Example 3 and Example 4. The phototoxicity test method in shaded conditions as a control for non-light irradiation was carried out in the same manner as in the phototoxicity test method under light irradiation except that light was blocked.
The number of viable cells of the human retinal pigment epithelial cells was checked for 15 minutes (1.87 J/cm^2), 20 minutes (2.50 J/cm^2), 25 minutes (3.13 J/cm^2), 30 minutes (3.75 J/cm^2), 40 minutes (5.00 J/cm^2) and 60 minutes (7.51 J/cm^2).

The mark [7] stands for this setting: shaded (control for non-light irradiation).
Setting [8] is: shaded with aluminum foil (control for non-light irradiation), 40 minutes, then cultivation overnight.
The mark [9] stands for this setting: simulated solar light irradiation 40 minutes, about 5 J/cm^2.
Where [10] appears, read: simulated solar light irradiation 40 minutes, about 5 J/cm^2 at 360 nm, then cultivation overnight.

Turning to `Oc1c(Cl)cc(Cl)cc1Sc1cc(Cl)cc(Cl)c1O` [Bithionol, bithionol], the “photocytotoxicity determination by the phototoxicity test method of the present invention” value in data set [1] is recorded as “photocytotoxicity-negative”. In data set [1] (human, 40 min), the “IC50 (50% inhibitory concentration, cytotoxicity)” value was greater than 10 µg/mL and the “concentration at or below which cytotoxicity was not observed” value is no more than 10 µg/mL. The compound also returned an IC50 at 40 min in data set [2] greater than 10 µg/mL. Further, the “result in the yeast-RBC assay” value in data set [3] was “false positive”. In addition, the “photocytotoxicity determination by the comparative phototoxicity test method” value in data set [4] was “photocytotoxicity-positive”. In addition, the “PIF value (Photo Irritation Facor value) = IC50 shaded / IC50 under light irradiation” value in data set [4] (mouse, 40 min) is recorded as 12.4.

Consider `[H]/N=C(\N/C(=N/[H])NCCCCCCNC(=N)NC(=N)Nc1ccc(Cl)cc1)Nc1ccc(Cl)cc1` [Chlorhexidine, chlorhexidine], for which the “photocytotoxicity determination by the phototoxicity test method of the present invention” value in data set [1] is listed as “photocytotoxicity-negative”. For the same compound, the “IC50 (50% inhibitory concentration, cytotoxicity)” value in data set [1] (human, 40 min) came out at 43.7 µg/mL (≈ 86.5 µM); in data set [4] (mouse, 40 min) it was 10.1 µg/mL (≈ 20 µM). The “PIF value (Photo Irritation Facor value) = IC50 shaded / IC50 under light irradiation” value in data set [1] (human, 40 min) is 0.98; in data set [4] (mouse, 40 min), 1.4. Further, the values for the IC50 at 40 min in data set [2] and in data set [5] were 42.7 µg/mL (≈ 84.5 µM) and 13.7 µg/mL (≈ 27.1 µM), respectively. Moreover, the “result in the yeast-RBC assay” value in data set [3] is given as “false positive”. Moreover, the “photocytotoxicity determination by the comparative phototoxicity test method” value in data set [4] is on record as “photocytotoxicity-negative”.

Consider `CN(C)CCCN1c2ccccc2Sc2ccc(Cl)cc21` [Chlorpromazine (CPZ), chlorpromazine], for which the “photocytotoxicity determination by the phototoxicity test method of the present invention” value in data set [1] is given as “photocytotoxicity-positive”. Besides, the “PIF value (Photo Irritation Facor value) = IC50 shaded / IC50 under light irradiation” value came to 6.5 in data set [1] (human, 40 min) and 23.7 in data set [4] (mouse, 40 min). For the same compound, the PIF is recorded as 1.70 in data set [6] (15 min); 1.72 in data set [6] (20 min); 3.35 in data set [6] (25 min); 4.57 in data set [6] (30 min); 6.53 in data set [6] (40 min); 10.94 in data set [6] (60 min). Moreover, in data set [6] (25 min, 10 μg/ml), the “light irradiation dose by which the number of viable cells under light irradiation significantly decreases relative to light blocked conditions” value was no less than 3.13 J/cm^2. Also, the “photocytotoxicity determination by the comparative phototoxicity test method” value in data set [4] is “photocytotoxicity-positive”.

With `CC1(C)S[C@@H]2[C@H](NC(=O)Cc3ccccc3)C(=O)N2[C@H]1C(=O)O` [Penicillin G, penicillin G], the “photocytotoxicity determination by the phototoxicity test method of the present invention” value in data set [1] (evaluation based on PIF value) was “photocytotoxicity-negative”. Moreover, the “PIF value (Photo Irritation Facor value) = IC50 shaded / IC50 under light irradiation” value in data set [1] (from Example 3 and Example 4, greater than 5 = phototoxicity-positive) is given as “Photocytotoxicity is not Confirmed”; in data set [4] (from Comparative Example 1 and Comparative Example 2, greater than 5 = phototoxicity-positive) it was “Photocytotoxicity is not Confirmed”. The “concentration at or below which cytotoxicity was not observed” value in data set [1] (setting [7]), in data set [1] (setting [9]), in data set [4] (setting [7]) and in data set [4] (setting [9]) was no more than 1000 µg/mL each time. The “IC50 (50% inhibitory concentration, cytotoxicity)” value in data set [1] (setting [8]), in data set [1] (setting [10]), in data set [4] (setting [8]) and in data set [4] (setting [10]) was greater than 1000 µg/mL in each case. Besides, the “photocytotoxicity determination by the comparative phototoxicity test method” value in data set [4] (evaluation based on PIF value) was “photocytotoxicity-negative”.

On to `C=C[C@H]1C[N@@]2CC[C@H]1C[C@H]2[C@H](O)c1ccnc2ccc(OC)cc12` [Quinine, quinine], for which the “photocytotoxicity determination by the phototoxicity test method of the present invention” value in data set [1] (evaluation based on PIF value) is on record as “photocytotoxicity-negative”. Besides, in data set [1] (human, 40 min), the “IC50 (50% inhibitory concentration, cytotoxicity)” value was determined as 88.9 µg/mL (≈ 274 µM) and the “PIF value (Photo Irritation Facor value) = IC50 shaded / IC50 under light irradiation” value came to 1.7. The same compound gave an IC50 at 40 min in data set [2] of 147 µg/mL (≈ 453 µM). In addition, the “photocytotoxicity determination by the comparative phototoxicity test method” value in data set [4] (evaluation based on PIF value) is on record as “photocytotoxicity-positive”. Also, in data set [4] (mouse, 40 min), half-maximal inhibition (IC50) was put at 292 µg/mL (≈ 901 µM); the “IC50 (50% inhibitory concentration, cytotoxicity)” value worked out at 2.3 µg/mL (≈ 7.09 µM); the “PIF value (Photo Irritation Facor value) = IC50 shaded / IC50 under light irradiation” value is 128.8.

The IC50 is the point on the concentration scale where inhibition reaches its midpoint. A higher IC50 goes with weaker potency in that assay.
